“Also recorded” adds a separate entry of the source. Structures can show the parent of a compound that is named as a salt. Positions of bridges follow the written chain, without caps; N, C: chain ends. Non-standard residues stand in square brackets, D forms with d. Residues, ends and D or L forms follow the SMILES beside them. ξ: configuration not given here. *: point of attachment. X1 = CC[C@H](C)CCCCC(=O)*; dDab = NCC[C@@H](N)C(=O)O; Dab = NCC[C@H](N)C(=O)O; ξDab = NCCC(N)C(=O)O
Experiments:
S. epidermidis biofilm [1] = experiment: Inactivation of biofilm embedded bacteria using liquid buffer formulation (Method 1), S. epidermidis; type: cell-based, Staphylococcus epidermidis; conditions: for Biofilm inactivation: buffer formulation, antimicrobial tested with DspB; for Effect of DspB on activity of the antimicrobial against biofilm embedded S. epidermidis: buffer, antimicrobial plus DspB vs antimicrobial alone, P<0.05
Experimental: (§1) Method 1: Method to Test Inactivation of Biofilm Embedded Bacteria Using Liquid Buffer Formulation
(§2) S. epidermidis or E. coli biofilm were each grown in 96-well plate and washed three times to remove planktonic cells. Then biofilm was treated using 50 mM phosphate or citrate buffer, (no treatment control), buffer solutions containing DspB at 10-200 μg/ml, buffer solution containing antimicrobial alone, and buffer solution DspB plus antimicrobial for varying exposure times (10 min-3 h). After treatments, biofilm embedded bacteria was dispersed, diluted serially and plated on Tryptic soy agar plates. Data was analyzed using ANOVA and Tukey's test.

DspB [2] = experiment: Compatibility between antimicrobials or antibiotics and DspB in gel, enzymatic assay (Method 6); type: biochemical, Aggregatibacter actinomycetemcomitans; conditions: for Enzymatic activity of DspB in the presence of the antimicrobial compared with DspB control: P≤0.05, carvacrol and cinnamaldehyde at 0-30 min, chloroxylenol at 5, 10, 20 and 60 min
Experimental: Method 6: Method to Test Compatibility Between Antimicrobials or Antibiotics and DspB in Gel Using Enzymatic Assay
DspB gel containing 200 μg/ml DspB, 16% […] (PF127), 50 mM Phosphate buffer or citrate, 100 mM NaCl, pH 5.9, and 2× concentrated antimicrobial agent/antibiotics in 16% Poloxamer 405, 50 mM Phosphate buffer, 100 mM NaCl, pH 5.9 were mixed in equal proportions. 4×5 μL aliquots were withdrawn at 0, 5, 10, 20, 30, 60, and 120 min for measurement of DspB enzymatic activity. DspB enzymatic activity was measured using β-N-acetylglucosaminidase assay kit from Sigma (product code CS0780) in 96-well microtiter plate following the manufacturer's instructions. The plate was incubated for 30 minutes before terminating the reaction. Data analysis was done in Excel. Student T test (paired) was performed for each time point separately using DspB activity in mixture and in control sample as two set of variables. […]

E. coli biofilm = experiment: Inactivation of biofilm embedded bacteria using liquid buffer formulation (Method 1), E. coli; type: cell-based, Escherichia coli; conditions: antimicrobial plus DspB vs antimicrobial alone
Experimental: as §1, §2

S. epidermidis biofilm [3] = experiment: Compatibility between antimicrobials or antibiotics and DspB, biofilm dispersal assay in buffer (Method 3); type: cell-based, Staphylococcus epidermidis; conditions: for Biofilm dispersal when DspB and antimicrobial were added together: 20 μg/ml DspB, mixture used at 0 and 2 h, 10 min treatment
Experimental: Method 3: Method to Test Compatibility Between Antimicrobials or Antibiotics and DspB Using Biofilm Dispersal Assay
S. epidermidis biofilm was grown in 96-well plate and washed three times using sterile water to remove planktonic cells. Antimicrobials or antibiotics and DspB formulations were prepared in 50 mM phosphate or citrate buffer and stored at 37° C. for 2 h and used for treating biofilm at 0 and 2 h. Biofilm was treated using antimicrobials or antibiotics and DspB formulations for 10 min. After treatments, solutions were removed and washed 3 times to remove dispersed biofilm. Remaining biofilms in 96-well plates were stained using Crystal violet, unbound crystal violet was removed by washing the wells with sterile water, the biofilm bound crystal violet was eluted using 33% acetic acid, and the absorbance at 620 nm was taken using a microwell plate reader. Percent biofilm removal was calculated. Data was analyzed using ANOVA and Tukey's test.

S. epidermidis biofilm [4] = experiment: Biofilm dispersal by DspB gel formulations (Method 5); type: cell-based, Staphylococcus epidermidis; conditions: for Biofilm dispersal of gel containing DspB and antimicrobial compared with gel containing DspB alone: PF127 gel, 20 μg/ml DspB
Experimental: Method 5: Method to Test Biofilm Dispersal by DspB Gel Formulations
S. epidermidis biofilm was grown in 96-well plate and washed three times to remove planktonic cells. Then biofilm was treated using different DspB formulations appropriate treatment duration (10 min-1 h). After treatments, gels were removed and washed 3 times with sterile distilled water to remove excess gel and dispersed biofilm. Remaining biofilms in 96-well plates were stained using Crystal violet and unbound crystal violet was removed by washing the wells with sterile water, the biofilm bound crystal violet was eluted using 33% acetic acid, and the absorbance at 620 nm was taken using a microwell plate reader.
Gels containing DspB and selected concentrations of antimicrobials were formulated in 50 mM phosphate buffer or citrate buffer containing 16% PF127. DspB gel and antimicrobial gel were mixed together and incubated at 37° C. for 2 h. Biofilm dispersal was performed at 0 and 2 h using biofilm dispersal assay (Method 5). Blank gel, DspB gel and antimicrobial gels were included as controls.

DspB [5] = experiment: Compatibility between antimicrobials or antibiotics and DspB, enzymatic assay in buffer (Method 4); type: biochemical, Aggregatibacter actinomycetemcomitans
Experimental: Method 4: Method to Test Compatibility Between Antimicrobials or Antibiotics and DspB Using Enzymatic Assay
DspB (200 μg/mL) and antimicrobial agent/antibiotic stocks were prepared in respective buffers. 10 mM paranitrophenol (PNP) in 400 mM sodium carbonate, and the buffer (same DspB stock) was used as the standard solution, and negative control, respectively. DspB stock and antimicrobial stock were mixed in equal proportions, and then 4×5 μl samples were taken at defined time points (0, 5, 10, 20, 30, 60, and 120 min) and used to measure the DspB enzyme activity. DspB enzymatic activity was measured using β-N-Acetylglucosaminidase assay kit from Sigma (product code CS0780) in 96-well microtiter plate following the manufacturer's instructions. The plate was incubated for 30 minutes before terminating the reaction. Data analysis was done in Excel. Student T test (paired) was performed for each time point separately using DspB activity in mixture and in control sample as two set of variables.

[6] = gel formulation, 100 μg/ml DspB

In the case of CCCCC(CC)CNC(=N)NC(=N)NCCCCCCNC(=N)NC(=N)NCC(CC)CCCC (centres unmarked) [Alexidine, Alexidine dihydrochloride], the Biofilm inactivation (S. epidermidis biofilm [1]) is reported as >5 log log CFU and the “Effect of DspB on activity of the antimicrobial against biofilm embedded S. epidermidis” value (shortened to “Effect … against biofilm embedded S. epidermidis”) (S. epidermidis biofilm [1]) is reported as “enhanced”.

With COc1ccc2cc3[n+](cc2c1OC)CCc1cc2c(cc1-3)OCO2 [Berberine hydrochloride] the “Effect … against biofilm embedded S. epidermidis” value (S. epidermidis biofilm [1]; hydrochloride) was “no synergistic activity” and the “Effect … against biofilm embedded S. epidermidis” value (S. epidermidis biofilm [1]; listed as berberine hydrochloride, hydrochloride) was “did not enhance activity; also recorded: antagonism”.

Cc1ccc(C(C)C)cc1O [Carvacrol] was tested, and the “Synergy or compatibility with DspB, E: enzymatic” value (DspB [2]) was “E: synergy”, the “Enzymatic activity of DspB in the presence of the antimicrobial compared with DspB control” value (DspB [2]; wound gel) was “Higher enzymatic activity” and the “Effect of DspB on activity of the antimicrobial against biofilm embedded E. coli” value (“Effect … against biofilm embedded E. coli” below) (E. coli biofilm; P<0.05) was “enhanced”. The “Biofilm dispersal when DspB and antimicrobial were added together” value (S. epidermidis biofilm [3]; buffer) was ≥ 73%, the Biofilm inactivation (S. epidermidis biofilm [1]) was >5 log log CFU and the “Effect … against biofilm embedded S. epidermidis” value (S. epidermidis biofilm [1]) was “enhanced”. For the same compound, the “Synergy or compatibility with DspB, M: microbiological (biofilm dispersal assay; biofilm inactivation not tested)” value (S. epidermidis biofilm [4]) was “M: compatible”, the “Biofilm dispersal of gel containing DspB and antimicrobial compared with gel containing DspB alone” value (S. epidermidis biofilm [4]) was “similar” and the “Synergy or compatibility with DspB, E: enzymatic” value (DspB [5]) was “E: synergy”.

CCCCCCCCCCCCCCCC[n+]1ccccc1.[Cl-] [Cetylpyridinium chloride] was tested, and the “Synergy or compatibility with DspB, E: enzymatic” value (DspB [2]) was “E: compatible” and the “Synergy or compatibility with DspB, E: enzymatic” value (DspB [5]) was “E: no synergy”.

For Cc1cc(O)cc(C)c1Cl [Chloroxylenol], the “Biofilm dispersal when DspB and antimicrobial were added together” value (S. epidermidis biofilm [3]; buffer) was ≥ 74% and the Biofilm inactivation (S. epidermidis biofilm [1]) was >5 log log CFU.

With O=C/C=C/c1ccccc1 [Cinnamaldehyde] the “Synergy or compatibility with DspB, E: enzymatic” value (DspB [2]; [6]) was “E: synergy”, the “Enzymatic activity of DspB in the presence of the antimicrobial compared with DspB control” value (DspB [2]; wound gel) was “Higher enzymatic activity” and the “Effect … against biofilm embedded E. coli” value (E. coli biofilm; P<0.05) was “enhanced”. For the same compound, the “Biofilm dispersal when DspB and antimicrobial were added together” value (S. epidermidis biofilm [3]; buffer) was ≥ 78%, the “Effect … against biofilm embedded S. epidermidis” value (S. epidermidis biofilm [1]) was “enhanced” and the “Biofilm dispersal of gel containing DspB and antimicrobial compared with gel containing DspB alone” value (S. epidermidis biofilm [4]) was “similar”.

With O=C(O)C=Cc1ccccc1 [Cinnamic acid] the Biofilm inactivation (S. epidermidis biofilm [1]) was <0.5 log log CFU and the “Effect … against biofilm embedded S. epidermidis” value (S. epidermidis biofilm [1]) was “did not show any enhancement”.

For CNC1C(O)[C@@H](O[C@H]2C(N)C[C@H](N)C(O[C@H]3OC([C@@H](C)N)CCC3N)C2O)OC[C@]1(C)O (some centres unmarked) [Gentamicin sulfate], the “Synergy or compatibility with DspB, E: enzymatic” value (DspB [2]; [6]) was “E: compatible” and the “Biofilm dispersal of gel containing DspB and antimicrobial compared with gel containing DspB alone” value (S. epidermidis biofilm [4]) was “similar”.

With CC(=O)CC/C=C(\C)CCC=C(C)C [Geranyl acetone] the Biofilm inactivation (S. epidermidis biofilm [1]) was <0.5 log log CFU.

Cc1ncc([N+](=O)[O-])n1CCO [Metronidazole] was tested, and the “Synergy or compatibility with DspB, E: enzymatic” value (DspB [2]; [6]) was “E: compatible” and the “Biofilm dispersal of gel containing DspB and antimicrobial compared with gel containing DspB alone” value (S. epidermidis biofilm [4]) was “similar”.

In the case of C/C(=C\C(=O)OCCCCCCCCC(=O)O)C[C@@H]1OC[C@H](C[C@@H]2O[C@H]2[C@@H](C)[C@H](C)O)[C@@H](O)[C@H]1O [Mupirocin], the “Synergy or compatibility with DspB, E: enzymatic” value (DspB [2]; [6]) is reported as “E: synergy” and the “DspB activity in the presence of the antimicrobial, enzymatic assay” value (DspB [2]; wound gel, for up to 2 h, relative to 100 μg/mL DspB control) is reported as > 100%.

For CC(C)=CCC/C(C)=C\CO [Nerol], the Biofilm inactivation (S. epidermidis biofilm [1]) was <0.5 log log CFU.

C=CC(C)(O)CCC=C(C)CCC=C(C)C (centres unmarked) [Nerolidol] was tested, and the Biofilm inactivation (S. epidermidis biofilm [1]) was <0.5 log log CFU.

In the case of CCCCCCCCN=c1ccn(CCCCCCCCCCn2ccc(=NCCCCCCCC)cc2)cc1.Cl.Cl [Octenidine dihydrochloride, octenidine dihydrochloride], the “Synergy or compatibility with DspB, E: enzymatic” value (DspB [2]; [6]) is reported as “E: compatible”, the “Effect … against biofilm embedded E. coli” value (E. coli biofilm; P<0.05, dihydrochloride) is reported as “enhanced activity” and the “Effect … against biofilm embedded E. coli” value (E. coli biofilm; P<0.05, listed as ODC, dihydrochloride) is reported as “enhanced”. The “Biofilm dispersal when 20 μg/ml DspB was mixed with the antimicrobial” value (S. epidermidis biofilm [3]; biofilms treated for 10 min, data not presented) was “no biofilm dispersal was observed”, the “Biofilm dispersal when DspB and antimicrobial were added together for 2 h” value (S. epidermidis biofilm [3]; buffer, 100 μg/ml DspB, 0.01% ODC) was “minimal biofilm dispersal” and the Biofilm inactivation (S. epidermidis biofilm [1]) was >5 log log CFU. For the same compound, the “Effect … against biofilm embedded S. epidermidis” value (S. epidermidis biofilm [1]; dihydrochloride) was “enhanced activity”, the “Effect … against biofilm embedded S. epidermidis” value (S. epidermidis biofilm [1]; listed as ODC, dihydrochloride) was “enhanced” and the “Biofilm dispersal of gel containing DspB and antimicrobial compared with gel containing DspB alone” value (S. epidermidis biofilm [4]) was “similar”.

In the case of CC[C@H](C)CCCCC(=O)N[C@@H](CCN)C(=O)N[C@H](C(=O)NC(CCN)C(=O)N[C@H]1CCNC(=O)[C@H]([C@@H](C)O)NC(=O)[C@H](CCN)NC(=O)[C@H](CCN)NC(=O)[C@H](CC(C)C)NC(=O)[C@@H](Cc2ccccc2)NC(=O)[C@@H](CCN)NC1=O)[C@@H](C)O (some centres unmarked) [Polymyxin B sulfate] (X1-[Dab]T[ξDab][Dab][dDab][dF]L[Dab][Dab]T; lactam 4-C), the “Synergy or compatibility with DspB, E: enzymatic” value (DspB [2]; [6]) is reported as “E: compatible” and the “Biofilm dispersal of gel containing DspB and antimicrobial compared with gel containing DspB alone” value (S. epidermidis biofilm [4]) is reported as “similar”.

In the case of Cc1ccc(C(C)C)c(O)c1 [Thymol], the Biofilm inactivation (S. epidermidis biofilm [1]) is reported as >5 log log CFU and the “Effect … against biofilm embedded S. epidermidis” value (S. epidermidis biofilm [1]) is reported as “enhanced”.

For Benzalkonium chloride, the “Synergy or compatibility with DspB, E: enzymatic” value (DspB [2]) was “E: compatible”, the “Synergy or compatibility with DspB, M: microbiological (biofilm dispersal assay; biofilm inactivation not tested)” value (S. epidermidis biofilm [3]) was “M: no synergy” and the “Synergy or compatibility with DspB, M: microbiological (biofilm dispersal assay; biofilm inactivation not tested)” value (S. epidermidis biofilm [4]) was “M: compatible”. The “Synergy or compatibility with DspB, E: enzymatic” value (DspB [5]) was “E: no synergy”.

BisEDT was tested, and the Biofilm inactivation (S. epidermidis biofilm [1]) was <1 log log CFU.

Nisin was tested, and the Biofilm inactivation (S. epidermidis biofilm [1]) was <0.5 log log CFU.
